We go through seven molecules from ChEMBL document CHEMBL1201862, “PubChem BioAssay data set” (2004).

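Growth conditions: 96-well plates. Treatment: test compound, 48 hours, 5 concentrations. Analysis: linear interpolation between bracketing concentrations; unreached endpoints set to highest concentration. Here, GI50 denotes the concentration required for 50% inhibition of growth.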 Active and inactive are the calls of the source. Cut-off read from the data, not from the text of the source: active = GI50 up to about 1.1 µM and inactive = higher.

Some test systems named below: SF-295; A549; SW-620; TK-10; OVCAR-3; HCT-15; DU-145; SNB-19; HCT-116; OVCAR-5; NCI-H23; U-251; MDA-N; SK-MEL-28; IGROV-1; A498; UACC-62; MDA-MB-435; PC-3; NCI-H226.
What all share (experiment): DTP human tumour cell line panel, 48 h

With `C=C1CC2(CCOc3ccc(Cl)cc32)OC1=O` (stereo not given), the GI50 in the assay on SF-295 is 7.24 µM (inactive); in the assay on A549, 13.5 µM (inactive); with SW-620, 1.26 µM (inactive); in the assay with TK-10, 5.77 µM (inactive); with OVCAR-3, 1.39 µM (inactive); in the assay on HCT-15, 0.935 µM. Besides, the GI50 in the assay on DU-145 is 12.7 µM (inactive); in the assay with SNB-19, 13.1 µM (inactive); in the assay on HCT-116, 1.63 µM (inactive); in the assay with OVCAR-5, 10.6 µM (inactive); in the assay on NCI-H23 it was 5.22 µM (inactive); in the assay on U-251, 8.63 µM (inactive). Besides, the GI50 was 3.53 µM (inactive) in the assay with MDA-N; 8.38 µM (inactive) in the assay on SK-MEL-28; 8.57 µM (inactive) in the assay with IGROV-1; 11.9 µM (inactive) in the assay with A498; 13.1 µM (inactive) in the assay on UACC-62; 2.82 µM (inactive) in the assay with MDA-MB-435. Moreover, the GI50 in the assay on PC-3 is 1.95 µM (inactive); in the assay with NCI-H226 it was 2.81 µM (inactive).

Consider `O=c1c2cccnc2[nH]c2ccc3[nH]ncc3c12`, for which the GI50 was > 10 µM (inactive) with SF-295; > 10 µM (inactive) in the assay with A549; > 10 µM (inactive) with SW-620; > 10 µM (inactive) in the assay with TK-10; > 10 µM (inactive) in the assay with OVCAR-3; 6.18 µM in the assay with HCT-15. For the same molecule, the GI50 in the assay on DU-145 was > 10 µM (inactive); with SNB-19, > 10 µM (inactive); in the assay with HCT-116 it was 7.91 µM (inactive); in the assay on OVCAR-5, > 10 µM (inactive); in the assay on NCI-H23 it was > 10 µM (inactive); with U-251 it was > 10 µM (inactive). In addition, the GI50 was > 10 µM (inactive) with MDA-N; > 10 µM (inactive) with SK-MEL-28; 6.11 µM (inactive) in the assay with IGROV-1; 8.49 µM (inactive) in the assay with A498; > 10 µM (inactive) in the assay on UACC-62; > 10 µM (inactive) in the assay with MDA-MB-435. The GI50 in the assay with PC-3 and with NCI-H226 was > 10 µM (inactive) in each case.

As for `Oc1ccc(SCc2ccc(NCc3ccccc3)cc2)cc1`, the GI50 in the assay on SF-295 is 22.3 µM (inactive); with A549, 22.1 µM (inactive); in the assay with SW-620 it was 36.4 µM (inactive); in the assay on TK-10, 50.4 µM (inactive); in the assay with OVCAR-3, 30 µM (inactive); with HCT-15, 8.97 µM. Also, the GI50 in the assay on DU-145 was 32 µM (inactive); in the assay on SNB-19 it was 23.9 µM (inactive); in the assay on HCT-116, 46.6 µM (inactive); in the assay with OVCAR-5, 27.2 µM (inactive); with NCI-H23 it was 24.7 µM (inactive); with U-251, 24.4 µM (inactive). For the same molecule, the GI50 with MDA-N is 24.5 µM (inactive); in the assay on SK-MEL-28, 63.8 µM (inactive); with IGROV-1, 45.5 µM (inactive); in the assay on A498, 20.1 µM (inactive); in the assay with UACC-62, 23.4 µM (inactive); in the assay with MDA-MB-435, 18.2 µM (inactive). Besides, the GI50 in the assay on PC-3 was 18.9 µM (inactive); with NCI-H226, 98.2 µM (inactive).

For `NC(CSC1c2ccccc2-c2ccccc21)C(=O)O` (stereo not given), the GI50 was > 100 µM (inactive) in the assay with SF-295; > 100 µM (inactive) in the assay with A549; > 100 µM (inactive) in the assay with SW-620; > 100 µM (inactive) in the assay with TK-10; > 100 µM (inactive) in the assay on OVCAR-3; above 100 µM in the assay on HCT-15. Moreover, the GI50 in the assay on DU-145, with SNB-19, in the assay on HCT-116, in the assay with OVCAR-5, in the assay on NCI-H23 and in the assay on U-251 was > 100 µM (inactive) in each case. Also, the GI50 with MDA-N, with SK-MEL-28, in the assay on IGROV-1, in the assay with A498, in the assay with UACC-62 and in the assay on MDA-MB-435 was > 100 µM (inactive) in each case. The GI50 in the assay on PC-3 and in the assay with NCI-H226 was > 100 µM (inactive) in each case.

For `CCCCCCCCCCCCCCNC(=O)CCC(NC(=O)c1ccc(N(C)Cc2cnc3nc(N)nc(N)c3n2)cc1)C(=O)NCCCCCCCCCCCCCC` (stereo not given), the GI50 in the assay on SF-295 was 7.19 µM (inactive); in the assay on A549 it was 5.45 µM (inactive); in the assay on SW-620, 0.288 µM (active); in the assay on TK-10 it was > 39.1 µM (inactive); with OVCAR-3 it was 13.4 µM (inactive); in the assay on HCT-15, 2.52 µM. The GI50 in the assay with DU-145 is 13.9 µM (inactive); in the assay on SNB-19, 17.1 µM (inactive); in the assay on HCT-116, 0.698 µM (active); with OVCAR-5, 19.2 µM (inactive); with NCI-H23 it was 3.8 µM (inactive); with U-251, 2.24 µM (inactive). Moreover, the GI50 in the assay on MDA-N is 0.244 µM (active); with SK-MEL-28, 13.8 µM (inactive); in the assay on IGROV-1 it was 7.14 µM (inactive); with A498, 14.5 µM (inactive); in the assay on UACC-62 it was 2.63 µM (inactive); with MDA-MB-435, 0.207 µM (active). For the same molecule, the results for the GI50 in the assay with PC-3 and with NCI-H226 were 0.665 µM (active) and > 52.1 µM (inactive), respectively.

For the molecule `NC1=NCCN1CC(=O)O` [CYCLOCREATINE], the GI50 in the assay on SF-295 was > 10000 µM (inactive); in the assay on A549, > 1000 µM (inactive); in the assay on SW-620 it was > 1000 µM (inactive); in the assay with TK-10, > 1000 µM (inactive); in the assay with OVCAR-3, > 1000 µM (inactive); in the assay on HCT-15 it was above 1000 µM. Besides, the GI50 in the assay with DU-145, in the assay with SNB-19, with HCT-116, in the assay on OVCAR-5, with NCI-H23 and with U-251 was > 1000 µM (inactive) in each case. The GI50 is > 10000 µM (inactive) in the assay on MDA-N; > 1000 µM (inactive) in the assay with SK-MEL-28; > 1000 µM (inactive) with IGROV-1; > 1000 µM (inactive) in the assay on A498; > 1000 µM (inactive) in the assay with UACC-62; > 1000 µM (inactive) in the assay on MDA-MB-435. Besides, the GI50 in the assay on PC-3 and with NCI-H226 was > 1000 µM (inactive) throughout.

Regarding `CC(C)=CCC/C(C)=C/CC/C(C)=C/CC/C(C)=C/CC/C(C)=C/CC/C(C)=C/CC/C(C)=C/CC/C(C)=C/CC/C(C)=C/CO` [SOLANESOL], the GI50 in the assay on SF-295 is > 100 µM (inactive); in the assay on A549 it was > 100 µM (inactive); in the assay with SW-620, > 100 µM (inactive); in the assay with TK-10, > 100 µM (inactive); in the assay on OVCAR-3 it was > 100 µM (inactive); with HCT-15, above 100 µM. The GI50 in the assay on DU-145, in the assay on SNB-19, in the assay with HCT-116, with OVCAR-5, in the assay on NCI-H23 and with U-251 was > 100 µM (inactive) in each case. The GI50 in the assay on MDA-N, in the assay on SK-MEL-28, with IGROV-1, in the assay on A498, with UACC-62 and with MDA-MB-435 was > 100 µM (inactive) in each case. Besides, the GI50 in the assay on PC-3 and with NCI-H226 was > 100 µM (inactive) in each case.
